According to patent US6693083B2, “Conjugates targeted to the interleukin-2 receptor” (Watson Pharmaceuticals, Inc., priority 1997, dated 2004):
“Also recorded” adds a separate entry of the source. Like-named read-outs stand apart in the source and are kept apart here. Where no end group is shown, it is not given here. PEG = not defined here; ADR = adriamycin

Legend:
[1] = test system: IL-2-induced proliferation of murine splenocytes; assay: Inhibition of IL-2-induced proliferation of murine splenocytes (trypan blue viable cell count); format: cell-based, mouse; conditions: for specific binding to the IL-2 receptor: concluded from inhibition of IL-2-induced proliferation (Example 20)
Protocol: The in vitro effects of IL-2-receptor-targeted conjugates on IL-2-induced proliferation of murine splenocytes was examined.
A sterile splenocyte suspension was prepared as follows. Spleens were aseptically removed from male C57 BL/6 mice and placed in sterile tissue culture medium (RPMI plus 10% fetal calf serum). The spleens were teased apart and gently aspirated using a Pasteur pipet. The resulting spleen cell suspension was then filtered through sterile gauze and centrifuged at 150×g for 10 minutes at 20° C. […] After 30 seconds, an equal volume of tissue culture medium was added to the suspension to restore isotonicity. The cell suspension was again centrifuged at 150×g for 10 minutes at 20° C., and the resulting cell pellet was washed once using tissue culture medium. The washed cell pellet was finally resuspended in tissue culture medium, and cell density was adjusted to 5×10^6 cells/ml.
To the wells of a 96-well assay plate (Falcon MICROTEST III), 50 μl volumes of the splenocyte suspension were added. Competitor (conjugate) solutions were prepared and diluted in tissue culture medium and added to the wells of the assay plate in 25 μl volumes. To control wells, 25 μl of tissue culture medium was added. […] To the wells of the assay plate, 25 μl of either tissue culture medium or a solution containing recombinant human IL-2 (Pharmingen) at a concentration of 20 ng/ml (in tissue culture medium) was added.
Final results were quantitated as follows. Viable cell counts were performed for each separate well of the assay plate using the trypan blue exclusion method. Trypan blue is taken up and imparts a blue color to dead cells. Briefly, an aliquot of cells was twice diluted in 0.4% trypan blue stain (Sigma Chemical Co., St. Louis, Mo.) and incubated for 5 minutes before counting with a hemacytometer and an inverted microscope. The percentage of viable cells was calculated as the number of unstained cells per unit volume divided by the total number of stained and unstained cells×100. Cell counts for each duplicate set of wells were averaged, and cell proliferation was calculated as percent change from control cells using the following formula: [formula]
Percent inhibition of IL-2 induced proliferation was calculated as follows. [formula]

B10.RIII mice = assay: Treatment of collagen-induced arthritis (CIA) in B10.RIII mice; conditions: 2 mg/kg i.p.; for weight loss: alternate day treatment, observed for 84 days, PBS control about 5%±5%
Protocol: B10.RIII mice were injected with CII (200 μg) emulsified with complete Freund's adjuvant (CFA; 200 μg H37Ra). At day 21, mice were boosted with 100 μg of CII, randomized for CIA severity (13/group), and an alternate day treatment protocol was begun.

mouse CTLL-2 cells = assay: In vitro cytotoxic activity against mouse CTLL-2 cells (MTS cell viability assay)
Protocol: CTLL-2 cells express the IL-2 high affinity receptor. […] Thereafter, cell viability was assessed by a colorimetric method using the tetrazolium compound MTS (3-(4,5-dimethylthiazol-2-yl)-5-(3-carboxymethoxyphenyl)-2-(4-sulfophenyl)-2H-tetrazolium, inner salt) and an electron coupling reagent, PMS (phenazine methosulfate). A. J. Cory et al., 3 Cancer Commun. […] MTS is bioreduced by living cells into a soluble formazan product. The absorbence of the formazan at 490 nm can be measured directly from 96 well assay plates without additional processing. The quantity of formazan product as measured by the absorbence at 490 nm is directly proportional to the number of living cells in culture. Reagents for the MTS assay were obtained from Promega Corp. (Madison, Wis.). […] The plate was then further incubated at 37° C. in a humidified, 5% CO2 atmosphere for 4 hours. The absorbence of each well was then measured at 490 nm with an EL311 Microplate Autoreader (Bio-Tek Instruments). The mean absorbence for each treatment was then calculated, and the percent cytotoxicity was determined using the formula: [formula]
wherein AS represents the mean absorbence for each treatment and AC represents mean absorbence of the control treatment, i.e. cells not exposed to a conjugate.

[2] = 48 hours incubation, MTS assay, compared by adriamycin concentration

Row | Molecule | specific binding to the IL-2 receptor [1] | weight loss (B10.RIII mice) | cytotoxicity against CTLL-2 T cells (FIG. 1) (mouse CTLL-2 cells; [2]) | also measured
1 | PEG-TT23-ADR ({PEG}-TGLNRILLGFLG-{ADR}; reading uncertain) | specifically bind to the IL-2 receptor | about 3%±6% | kills such CTLL-2 T cells at concentrations much lower than that required for PEG-GFLG-ADR; also recorded: requires higher concentrations of adriamycin than unconjugated adriamycin | arthritis severity (cumulative daily arthritis scores) (B10.RIII mice; alternate day treatment from day 21, observed for 84 days, compared to PBS control (P≦0.02)): significantly greater number of mice with only minimum arthritis
2 | PEG-Gly-Phe-Leu-Gly-ADR (GFLG; PEG and adriamycin conjugated; OTHER INFORMATION: Synthetic Construct) [PEG-GFLG-ADR, reference compound] | – | about 10%±8% | much lower than that required for PEG-GFLG-ADR | –
3 | PEG-TT23: prepared according to Example 1 except that no adriamycin was conjugated; PEG coupled to peptide TT23 (SEQ ID NO:22) (TGLNRILLGFLG; not fully specified (N-terminus); also: PEG conjugate, attachment site not given here) | specifically binds to the IL-2 receptor | – | – | inhibition of IL-2-induced proliferation of murine splenocytes (FIG. 2) ([1]; recombinant human IL-2, 48 hours, trypan blue exclusion): very effectively inhibits proliferation
4 | COc1cccc2c1C(=O)c1c(O)c3c(c(O)c1C2=O)C[C@@](O)(C(=O)CO)C[C@@H]3O[C@H]1C[C@H](N)[C@H](O)[C@H](C)O1 [adriamycin, reference compound] | – | – | – | cytotoxicity against CTLL-2 T cells (FIG. 1) (mouse CTLL-2 cells): rapidly diffuses into the cells and kills them
5 | TGLNRILLGFLG [peptide TT23] | – | – | – | amount needed to achieve similar levels of inhibition, relative to PEG-TT23 ([1]; IL-2-induced proliferation of murine splenocytes): about 100 fold
